Legend:
ECHCG (Barnyardgrass) = test: Postemergence herbicidal evaluation; assay type: in vivo, Echinochloa crus-galli; details: postemergence
In short: (§1)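 Herbicidal effect was judged by eye on a 0–9 scale covering stand, vigor, deformity, size and chlorosis, compared with controls, four to five weeks after seedlings about two weeks old were sprayed (40 psi, ~0.0156–0.500 kg/ha).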

ORYSAT (Rice, Tebonnet) = test: Postemergence herbicidal evaluation; assay type: in vivo, Oryza sativa, (L.) Tebonnet; details: postemergence
In short: as §1

ABUTH (Velvetleaf) = test: Postemergence herbicidal evaluation; assay type: in vivo, Abutilon theophrasti; details: postemergence
In short: as §1

[1] = test system: SAGPY (Arrowhead (Pygmaea)); test: Postemergence weed control under flooded paddy conditions; assay type: in vivo, Sagittaria pygmaea; details: postemergence weeds, 3-4 weeks after treatment
In short: (§2)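 Herbicidal effect is judged by eye on a 0–9 scale versus control, 3–4 weeks after dosing. Dosing is into flood water kept 1.5–3 cm over the soil, at about 0.0313–0.500 kg/ha in aqueous/acetone 50/50 v/v, on 3–5 cm weeds and 1.5–2.5-leaf rice seedlings.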

CYPIR (Rice Flatsedge) [2] = test: as above; assay type: in vivo, Cyperus iria; details: postemergence weeds, 3-4 weeks after treatment
In short: as §2

[3] = test system: ECHORC (Watergrass (Calif.)); test: Preemergence weed control under flooded paddy conditions; assay type: in vivo, Echinochloa oryzoides; details: rated 3-4 weeks after treatment
In short: (§3)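 Herbicidal effect is scored visually on a 0-9 scale against an untreated control, three to four weeks after compounds are pipetted into the flood water (1.5 to 3 cm deep) over seeds planted in silt loam at 0.5 cm depth. Rates: about 0.0313 to 0.500 kg/ha.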

ZEAMX (Corn, Field) = test: Preemergence herbicidal evaluation; assay type: in vivo, Zea mays; details: rated 4-5 weeks after treatment
In short: (§4)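 Steps: mix seeds into potting soil; plant atop ~1 inch soil; spray compound in aqueous acetone (~0.0156-0.500 kg/ha equivalent); maintain in greenhouse with watering; rate visually 0-9 versus control at 4-5 weeks.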

MOOVA (Monochoria) = test: Preemergence weed control under flooded paddy conditions; assay type: in vivo, Monochoria vaginalis; details: rated 3-4 weeks after treatment
In short: as §3

[4] = test system: IPOHE (Morningglory, Ivyleaf); test: Preemergence herbicidal evaluation; assay type: in vivo, Ipomoea hederacea; details: rated 4-5 weeks after treatment
In short: as §4

[5] = test system: TRZAWR (Wheat, Winter, cv Riband); test: Preemergence herbicidal evaluation; assay type: in vivo, Triticum aestivum; details: rated 4-5 weeks after treatment
In short: as §4

CYPIR (Rice Flatsedge) [6] = test: Preemergence weed control under flooded paddy conditions; assay type: in vivo, Cyperus iria; details: rated 3-4 weeks after treatment
In short: as §3

SETVI (Foxtail, Green) = test: Postemergence herbicidal evaluation; assay type: in vivo, Setaria viridis; details: postemergence
In short: as §1

CYPSE (Flatsedge) = test: Postemergence weed control under flooded paddy conditions; assay type: in vivo, Cyperus serotinus; details: postemergence weeds, 3-4 weeks after treatment
In short: as §2

GALAP (Galium) = test: Postemergence herbicidal evaluation; assay type: in vivo, Galium aparine; details: postemergence
In short: as §1

## CCOC(=O)CN1C(=O)C(=Cc2ccccc2)SC1=Nc1cc(-n2c(=O)cc(C(F)(F)F)n(C)c2=O)c(F)cc1Cl [Compound 19, Ethyl 5-benzylidene-2-{{2-chloro-5-[3,6-dihydro-3-methyl-2,6-dioxo-4-(trifluoromethyl)-1(2H)-pyrimidinyl]-4-fluorophenyl}imino}-4-oxo-3-thiazolidineacetate]
ECHCG (Barnyardgrass); rate 0.0158 kg/ha
  ECHCG herbicidal rating: 1.0
ECHCG (Barnyardgrass); rate 0.0315 kg/ha
  ECHCG herbicidal rating: 2.0
ECHCG (Barnyardgrass); rate 0.0630 kg/ha
  ECHCG herbicidal rating: 2.0
ORYSAT (Rice, Tebonnet); rate 0.0158 kg/ha
  ORYSAT herbicidal rating: 1.5
ORYSAT (Rice, Tebonnet); rate 0.0315 kg/ha
  ORYSAT herbicidal rating: 2.0
ORYSAT (Rice, Tebonnet); rate 0.0630 kg/ha
  ORYSAT herbicidal rating: 2.5
ABUTH (Velvetleaf); rate 0.0158 kg/ha
  ABUTH herbicidal rating: 9.0
ABUTH (Velvetleaf); rate 0.0315 kg/ha
  ABUTH herbicidal rating: 9.0
ABUTH (Velvetleaf); rate 0.0630 kg/ha
  ABUTH herbicidal rating: 9.0
[1]; rate 0.1160 kg/ha
  Herbicidal rating SAGPY: 0.0
[1]; rate 0.2310 kg/ha
  Herbicidal rating SAGPY: 3.0
[1]; rate 0.4630 kg/ha
  Herbicidal rating SAGPY: 3.0
CYPIR (Rice Flatsedge) [2]; rate 0.1160 kg/ha
  Herbicidal rating CYPIR: 0.0
CYPIR (Rice Flatsedge) [2]; rate 0.2310 kg/ha
  Herbicidal rating CYPIR: 0.0
CYPIR (Rice Flatsedge) [2]; rate 0.4630 kg/ha
  Herbicidal rating CYPIR: 0.0
[3]; 0.1160 kg/ha
  Herbicidal rating ECHORC: 7.0
[3]; 0.2310 kg/ha
  Herbicidal rating ECHORC: 7.0
[3]; 0.4630 kg/ha
  Herbicidal rating ECHORC: 9.0
ZEAMX (Corn, Field); rate 0.1250 kg/ha
  ZEAMX preemergence herbicidal rating: 0.0
ZEAMX (Corn, Field); rate 0.2500 kg/ha
  ZEAMX preemergence herbicidal rating: 0.0
MOOVA (Monochoria); 0.1160 kg/ha
  Herbicidal rating MOOVA: 9.0
MOOVA (Monochoria); 0.2310 kg/ha
  Herbicidal rating MOOVA: 9.0
MOOVA (Monochoria); 0.4630 kg/ha
  Herbicidal rating MOOVA: 9.0
[4]; rate 0.1250 kg/ha
  IPOHE preemergence herbicidal rating: 0.0
[4]; rate 0.2500 kg/ha
  IPOHE preemergence herbicidal rating: 0.0
[5]; rate 0.1250 kg/ha
  TRZAWR preemergence herbicidal rating: 0.0
[5]; rate 0.2500 kg/ha
  TRZAWR preemergence herbicidal rating: 0.0
CYPIR (Rice Flatsedge) [6]; 0.1160 kg/ha
  Herbicidal rating CYPIR: 0.0
CYPIR (Rice Flatsedge) [6]; 0.2310 kg/ha
  Herbicidal rating CYPIR: 0.0
CYPIR (Rice Flatsedge) [6]; 0.4630 kg/ha
  Herbicidal rating CYPIR: 0.0
SETVI (Foxtail, Green); rate 0.0158 kg/ha
  SETVI herbicidal rating: 1.0
SETVI (Foxtail, Green); rate 0.0315 kg/ha
  SETVI herbicidal rating: 2.0
SETVI (Foxtail, Green); rate 0.0630 kg/ha
  SETVI herbicidal rating: 2.0
CYPSE (Flatsedge); rate 0.1160 kg/ha
  Herbicidal rating CYPSE: 4.0
CYPSE (Flatsedge); rate 0.2310 kg/ha
  Herbicidal rating CYPSE: 4.0
CYPSE (Flatsedge); rate 0.4630 kg/ha
  Herbicidal rating CYPSE: 4.0
GALAP (Galium); rate 0.0158 kg/ha
  GALAP herbicidal rating: 2.0
GALAP (Galium); rate 0.0315 kg/ha
  GALAP herbicidal rating: 3.0
GALAP (Galium); rate 0.0630 kg/ha
  GALAP herbicidal rating: 3.0
